Results as given in patent US20200000916A1, “REGIONALLY ACTIVATED DRUG DELIVERY NANOPARTICLES” (The Regents of the University of California, priority 2013, published 2020).
“Also recorded” adds a separate entry of the source.

Test system: PTK2 kidney epithelial cells
Test: Cellular localization by live fluorescence microscopy
Format: cell-based
Settings: 2 μM, 2 hours incubation, before/without 365 nm light exposure; hydrochloride
Source text: The intracellular localization of the DOX-PCB nanoparticles and pure DOX was studied using the PTK2 epithelial cell line. These cells were used because they are susceptible to DOX and remain flat during mitosis, allowing for enhanced visualization of the nuclear region. This visualization capability was important since one of the main therapeutic modes of action for DOX is through DNA intercalation. The DOX-PCB nanoparticles and pure DOX are both naturally fluorescent which allowed them to be easily tracked through the cell. The PTK2 cells were plated in glass bottom petri dishes (MatTek Corporation, Ashland, Mass.) and were incubated in advanced MEM Media from Gibco (Invitrogen, Grand Island, N.Y.) with 2% fetal bovine serum, nonessential amino acids, 110 mg/L sodium pyruvate, and without penicillin-streptomycin or L-Glutamine.
A 1 ml media solution of DOX-PCB nanoparticles was prepared by first adding 10×DPBS to a 4.1 μM solution of DOX-PCB nanoparticles in water to achieve a 1×DPBS concentration, and then adding the resulting solution to a phenol-red free formulation of the advanced MEM media described above to achieve a final DOX-PCB content of 2 μM. This spiked media sample was then added to the glass bottom petri dish along with PTK2 cells seeded which had the previous incubation media removed. […]

**Q.** Which intracellular localization does the source give for COc1cccc2c1C(=O)c1c(O)c3c(c(O)c1C2=O)C[C@@](O)(C(=O)CO)C[C@@H]3O[C@H]1C[C@H](N)[C@H](O)[C@H](C)O1.Cl [DOX, Doxorubicin hydrochloride] here?
**A.** The intracellular localization was “strongly associate with the cell nuclei; also recorded: associate strongly with the cell nuclei”.
